Experimental data: ChEMBL document CHEMBL4414576, “Recent advancements in mechanistic studies and structure activity relationship of FoF1 ATP synthase inhibitor as antimicrobial agent” (Eur J Med Chem, 2019)
Converted amounts (≈) assume the structure as drawn.

Assays:
[1] = Inhibition of F1F0-ATP synthase in Escherichia coli after 60 mins
[2] = tested on: Escherichia coli; assay: Inhibition of F1F0-ATP synthase in Escherichia coli after 60 mins relative to control; design: concentration or dose not given beside the values
[3] = tested on: Escherichia coli; assay: Inhibition of F1F0-ATP synthase in Escherichia coli relative to control; design: concentration or dose not given beside the values; conditions: concentration not given here
[4] = tested on: Streptococcus pneumoniae; assay: Antimicrobial activity against Streptococcus pneumoniae ATCC 49619; type: functional
[5] = Inhibition of F1F0-ATP synthase in Escherichia coli
[6] = tested on: Staphylococcus aureus; assay: Antimicrobial activity against Staphylococcus aureus ATCC 29213; type: functional
[7] = tested on: Mycobacterium tuberculosis; assay: Antimicrobial activity against Mycobacterium tuberculosis H37Rv after 5 days; type: functional
[8] = biological target: ATP synthase; assay: Inhibition of ATP synthase in Mycobacterium tuberculosis H37Rv; type: protein-complex assay
[9] = Inhibition of ATP synthase isolates from rat brain cells using succinate as substrate preincubated for 5 mins followed by substrate addition
[10] = species on record: Mus musculus; assay: Inhibition of mitochondrial ATP synthase isolated from Swiss albino mouse liver at 100 uM using succinate as substrate after 1 hr relative to control
[11] = Selectivity index, ratio of CC50 for human HepG2 cells to MIC of Mycobacterium tuberculosis H37Rv; type: toxicity
[12] = Inhibition of ATP synthase in Mycobacterium smegmatis; design: species or system Mycolicibacterium smegmatis
[13] = biological target: ATP synthase (Mycobacterium tuberculosis) (UniProt P9WPU9+P9WPU5+P9WPU7+P9WPV5+P9WPS1+P9WPV1+P9WPV7+P9WPV3); assay: Inhibition of ATP synthase in Mycobacterium tuberculosis H37Rv whole cell lysate after 18 hrs at 10X of MIC relative to control; type: subcellular
[14] = tested on: Mycobacterium tuberculosis; assay: Antimicrobial activity against Mycobacterium tuberculosis H37Rv; type: functional, organism-based
[15] = Selectivity index, ratio of IC50 for ATP synthase in Mycobacterium tuberculosis H37Rv to IC50 for mitochondrial ATP synthase isolated from swiss albino mouse liver
[16] = Inhibition of ATP synthase in Escherichia coli
[17] = tested on: Escherichia coli; assay: Inhibition of ATP synthase in Escherichia coli relative to control; conditions: concentration not given here
[18] = tested on: Mycobacterium tuberculosis H37Rv; assay: Inhibition of F0F1-ATP synthase in Mycobacterium tuberculosis H37Rv at […] using succinate as substrate preincubated for 10 mins followed by substrate addition by luciferase reporter gene assay relative to control

## NC12CC3CC(CC(C3)C1)C2 [AMANTADINE]
[1]
  IC50: 2500 µM
[2]
  inhibition: 100%

## C[C@@H]1O[C@@H](OC[C@H]2O[C@@H](Oc3c(-c4ccc(O)c(O)c4)oc4cc(O)cc(O)c4c3=O)[C@H](O)[C@@H](O)[C@@H]2O)[C@H](O)[C@H](O)[C@H]1O
[2]
  inhibition: 40 to 60%

## Oc1ccccc1O
[3]
  inhibition: 40%

## COc1ccc(CC[C@@](O)(CCN(C)C)[C@@H](c2ccccc2)c2cc3cc(Br)ccc3nc2OC)cc1
[4]
  MIC: 0.25 µg/mL (≈ 0.444 µM)

## Oc1ccc(/N=C/c2ccccc2O)cc1
[5]
  IC50: 5 µM
[3]
  inhibition: 100%

## CC[C@H](C)[C@H](NC(=O)CN)C(=O)NCC(=O)N[C@@H](C)C(=O)N[C@H](C(=O)N[C@@H](CC(C)C)C(=O)N[C@@H](CCCCN)C(=O)N[C@H](C(=O)N[C@@H](CC(C)C)C(=O)N[C@H](C(=O)N[C@H](C(=O)NCC(=O)N[C@@H](CC(C)C)C(=O)N1CCC[C@H]1C(=O)N[C@@H](C)C(=O)N[C@@H](CC(C)C)C(=O)N[C@H](C(=O)N[C@@H](CO)C(=O)N[C@@H](Cc1c[nH]c2ccccc12)C(=O)N[C@H](C(=O)N[C@@H](CCCCN)C(=O)N[C@@H](CCCNC(=N)N)C(=O)N[C@@H](CCCCN)C(=O)N[C@@H](CCCNC(=N)N)C(=O)N[C@@H](CCC(N)=O)C(=O)N[C@@H](CCC(N)=O)C(N)=O)[C@@H](C)CC)[C@@H](C)CC)[C@@H](C)O)[C@@H](C)O)C(C)C)C(C)C
[3]
  inhibition: 78%

## C[C@H]1COc2c(N3CCN(C)CC3)c(F)cc3c(=O)c(C(=O)O)cn1c23.C[C@H]1COc2c(N3CCN(C)CC3)c(F)cc3c(=O)c(C(=O)O)cn1c23.O [LEVOFLOXACIN]
[6]
  MIC: 0.25 µg/mL

## Oc1cccc(/C=N/c2ccccc2O)c1
[5]
  IC50: 9 µM
[3]
  inhibition: 85%

## CCN(CC)Cc1cc(N(c2cc(C)nc3cc(Cl)ccc23)S(=O)(=O)c2ccc(Cl)cc2Cl)ccc1O
[7]
  MIC: 3.12 µg/mL (≈ 5.39 µM)
[8]
  IC50: 0.36 to 1.83 µM

## O=C(O[C@@H]1Cc2c(O)cc(O)cc2O[C@@H]1c1cc(O)c(O)c(O)c1)c1cc(O)c(O)c(O)c1 [EPIGALOCATECHIN GALLATE]
[9]
  IC50: 17 µM

## COc1ccc(/C=C2/S/C(=N/N=C/c3ccccc3O)NC2=O)cc1
[10]
  inhibition: 32%
[11]
  selectivity ratio: 80
[12]
  IC50: 0.312 µM
[13]
  inhibition: 15 to 30%
[14]
  MIC: 0.5 µg/mL (≈ 1.41 µM)
[15]
  Ratio IC50: 51

## O=c1c(-c2ccc(O)cc2)coc2cc(O)cc(O)c12
[2]
  inhibition: 40 to 60%

## Oc1ccccc1/C=N/c1ccccc1O
[5]
  IC50: 7 µM
[3]
  inhibition: 95%

## CCN(CC)Cc1cc(N(c2cc(C)nc3cc(Cl)ccc23)S(=O)(=O)c2ccc(Cl)s2)ccc1O
[7]
  MIC: 6.25 µg/mL (≈ 11.4 µM)
[8]
  IC50: 0.36 to 1.83 µM

## SILYMARIN
[1]
  IC50: 110 µM

## COc1nc2ccc(Br)cc2cc1[C@@H](c1ccccc1)[C@@](O)(CCN(C)C)c1cccc2ccccc12 [BEDAQUILINE]
[11]
  selectivity ratio: > 20000
[12]
  IC50: 6.47 µM
[14]
  MIC: 3.6 µg/mL (≈ 6.48 µM)

## Oc1cc2cc3ccccc3cc2c(O)c1O
[3]
  inhibition: 30%

## Oc1ccc(/C=N/c2cccc(O)c2)cc1
[5]
  IC50: 9 µM
[3]
  inhibition: 100%

## Oc1cc(O)c2c(c1)OC(c1ccc(O)c(O)c1)C(O)C2 (configuration not stated) [CATECHIN]
[1]
  IC50: 4000 µM
[2]
  inhibition: 100%

## COc1cc(C2Oc3cc([C@H]4Oc5cc(O)cc(O)c5C(=O)[C@@H]4O)ccc3OC2CO)ccc1O (some centres not stated) [SILIBININ]
[1]
  IC50: 340 µM
[2]
  inhibition: 100%

## O=c1c(O[C@@H]2O[C@H](CO)[C@@H](O)[C@H](O)[C@H]2O)c(-c2ccc(O)c(O)c2)oc2cc(O)cc(O)c12 [ISOQUERCETIN]
[16]
  IC50: 71 µM
[17]
  inhibition: 40%

## O=c1c(O)c(-c2ccccc2)oc2cc(O)cc(O)c12
[2]
  inhibition: 0 to 20%

## CC(N)C12CC3CC(CC(C3)C1)C2 (configuration not stated) [RIMANTADINE]
[1]
  IC50: 2000 µM
[2]
  inhibition: 100%

## COc1nc2ccc(Br)cc2cc1[C@H](c1ccccc1)[C@](O)(CCCCN1CCN(C)CC1)CCc1ccccc1
[6]
  MIC: 1 µg/mL (≈ 1.62 µM)
[4]
  MIC: 0.25 µg/mL (≈ 0.405 µM)

## Oc1cc2cc3ccccc3cc2cc1O
[3]
  inhibition: 22%

## Oc1cccc(O)c1
[3]
  inhibition: 20%

## CCN(CC)Cc1cc(N(c2cc(C)nc3cc(Cl)ccc23)S(=O)(=O)c2ccc(Cl)cc2)ccc1O
[7]
  MIC: 6.25 µg/mL (≈ 11.5 µM)
[8]
  IC50: 0.36 to 1.83 µM

## OC(COC(c1ccccc1)c1cccc2ccccc12)CN1CCN(C(c2ccccc2)c2ccccc2)CC1 (configuration not stated)
[18]
  inhibition: 98%

## Oc1cccc(/N=C/c2ccccc2O)c1
[5]
  IC50: 5.25 µM
[3]
  inhibition: 85%

## O=[N+]([O-])c1ccc(/N=C/c2ccccc2O)c(O)c1
[5]
  IC50: 5 µM
[3]
  inhibition: 100%
